Test results published in PubChem BioAssay AID330 (DTP/NCI, 2004).
Where “and” joins values, the source holds several entries; their conditions need not be identical. Identical values can stand only once. Inconclusive results and toxic doses are left out. How the source made its calls: active means survival T/C of 150% or more; inactive means T/C below 125% in these data.

Tested on: P388 leukemia ip, CD2F1 mice, survival T/C
Assay: NCI In Vivo Anticancer Drug Screen. Data for tumor model P388 Leukemia (intraperitoneal) in CD2F1 (CDF1) mice
Settings: endpoint: median survival time, higher = longer survival
Outline: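 Mice carrying the transplanted tumor received test compound or vehicle. Survival was recorded in each group, and the value is the treated-group measurement divided by that of the vehicle-treated control group.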

[1] = dose: 200.0 mg/kg/injection, schedule: Q01DX001 (ip), vehicle: Klucel (hydroxypropylcellulose) (HPC)
[2] = dose: 50.0 mg/kg/injection, schedule: Q01DX005 (ip), vehicle: Klucel (hydroxypropylcellulose) (HPC)
[3] = dose: 100.0 mg/kg/injection, schedule: Q01DX005 (ip), vehicle: Klucel (hydroxypropylcellulose) (HPC)
[4] = dose: 50.0 mg/kg/injection, schedule: Q01DX009 (ip), vehicle: saline with Tween-80
[5] = dose: 200.0 mg/kg/injection, schedule: Q01DX009 (ip), vehicle: saline
[6] = dose: 50.0 mg/kg/injection, schedule: Q01DX005 (ip), vehicle: saline
[7] = dose: 100.0 mg/kg/injection, schedule: Q01DX005 (ip), vehicle: saline
[8] = dose: 200.0 mg/kg/injection, schedule: Q01DX005 (ip), vehicle: saline
[9] = dose: 12.5 mg/kg/injection, schedule: Q01DX009 (ip), vehicle: saline with Tween-80
[10] = dose: 25.0 mg/kg/injection, schedule: Q01DX009 (ip), vehicle: saline with Tween-80

Measured: T/C

CCCCCCCN1CCS(=O)(=O)CC1
inactive: dose: 50.0 mg/kg/injection, schedule: Q01DX009 (ip), vehicle: Klucel (hydroxypropylcellulose) (HPC) 93 % of control | dose: 100.0 mg/kg/injection, schedule: Q01DX009 (ip), vehicle: Klucel (hydroxypropylcellulose) (HPC) 98 % of control | dose: 200.0 mg/kg/injection, schedule: Q01DX009 (ip), vehicle: Klucel (hydroxypropylcellulose) (HPC) 97 % of control

CCC(=O)OCc1c(-c2ccccc2)nc2sccn12
inactive: [1] 103 % of control

Cc1cccc2nc(-c3ccccn3)n(CCc3ccccn3)c12
inactive: [2] 98 % of control | [3] 106 % of control

CC1=CC(C)(C)N=C2SC(COc3ccccc3)=NN12
inactive: dose: 25.0 mg/kg/injection, schedule: Q01DX005 (ip), vehicle: Klucel (hydroxypropylcellulose) (HPC) 116 % of control | [2] 109 % of control | [3] 107 % of control | dose: 200.0 mg/kg/injection, schedule: Q01DX005 (ip), vehicle: Klucel (hydroxypropylcellulose) (HPC) 104 % of control

CCC(C)(C)c1cccc(C(=O)O)c1O
inactive: dose: 25.0 mg/kg/injection, schedule: Q04DX003 (ip), vehicle: saline with Tween-80 100 % of control | dose: 50.0 mg/kg/injection, schedule: Q04DX003 (ip), vehicle: saline with Tween-80 118 % of control | dose: 100.0 mg/kg/injection, schedule: Q04DX003 (ip), vehicle: saline with Tween-80 106 % of control and 112 % of control

COc1ccc(/C=C(/C)[N+](=O)[O-])cc1OC
inactive: dose: 22.0 mg/kg/injection, schedule: Q01DX009 (ip), vehicle: saline with Tween-80 109 % of control | dose: 33.0 mg/kg/injection, schedule: Q01DX009 (ip), vehicle: saline with Tween-80 109 % of control | [4] 109 % of control | dose: 75.0 mg/kg/injection, schedule: Q01DX009 (ip), vehicle: saline with Tween-80 118 % of control | [5] 100 % of control

C=C(C)C1C/C=C2/C(=O)OC(CC3(C)CC(=O)C(CC(=O)C1)O3)C2O (stereo unspecified)
inactive: dose: 4.0 mg/kg/injection, schedule: Q01DX009 (ip), vehicle: Klucel (hydroxypropylcellulose) (HPC) 101 % of control | dose: 8.0 mg/kg/injection, schedule: Q01DX009 (ip), vehicle: Klucel (hydroxypropylcellulose) (HPC) 101 % of control | dose: 16.0 mg/kg/injection, schedule: Q01DX009 (ip), vehicle: Klucel (hydroxypropylcellulose) (HPC) 104 % of control | dose: 32.0 mg/kg/injection, schedule: Q01DX009 (ip), vehicle: Klucel (hydroxypropylcellulose) (HPC) 101 % of control

O=C([O-])CCNC1OC(CO)C(O)C(O)C1O.O=C([O-])CCNC1OC(CO)C(O)C(O)C1O.[Pd+2] (stereo unspecified)
inactive: [6] 99 % of control | [7] 102 % of control | [8] 99 % of control

COC1C(c2cc(C(N)=O)n(-c3ccc([N+](=O)[O-])cc3)n2)OC2OC(C)(C)OC21 (stereo unspecified)
inactive: dose: 100.0 mg/kg/injection, schedule: Q01DX001 (ip), vehicle: saline with Tween-80 100 % of control | dose: 200.0 mg/kg/injection, schedule: Q01DX001 (ip), vehicle: saline with Tween-80 96 % of control | dose: 400.0 mg/kg/injection, schedule: Q01DX001 (ip), vehicle: saline with Tween-80 94 % of control

CCOCC(=O)C1(O)Cc2c(O)c3c(c(O)c2C(O)C1)C(=O)c1c(OC)cccc1C3=O (stereo unspecified)
inactive: dose: 1.56 mg/kg/injection, schedule: Q01DX009 (ip), vehicle: other 101 % of control | dose: 3.13 mg/kg/injection, schedule: Q01DX009 (ip), vehicle: other 100 % of control | dose: 6.25 mg/kg/injection, schedule: Q01DX009 (ip), vehicle: other 100 % of control | dose: 12.5 mg/kg/injection, schedule: Q01DX009 (ip), vehicle: other 95 % of control | dose: 25.0 mg/kg/injection, schedule: Q01DX009 (ip), vehicle: other 103 % of control

COCC(CC(=O)O)C(C(=O)O)C(=O)O (stereo unspecified)
inactive: dose: 12.5 mg/kg/injection, schedule: Q01DX009 (ip), vehicle: water 100 % of control | dose: 25.0 mg/kg/injection, schedule: Q01DX009 (ip), vehicle: water 106 % of control | dose: 50.0 mg/kg/injection, schedule: Q01DX009 (ip), vehicle: water 106 % of control | dose: 100.0 mg/kg/injection, schedule: Q01DX009 (ip), vehicle: water 93 % of control | dose: 200.0 mg/kg/injection, schedule: Q01DX009 (ip), vehicle: water 92 % of control

ClC(Cl)(Cl)c1nc2nccnc2[nH]1
inactive: dose: 6.25 mg/kg/injection, schedule: Q01DX009 (ip), vehicle: saline with Tween-80 88 % of control | [9] 100 % of control | [10] 107 % of control and 90 % of control

Cc1[nH]c2cc3c(cc2c(=O)c1Cc1c(C)[nH]c2cc4c(cc2c1=O)CCCC4)CCCC3
inactive: dose: 100.0 mg/kg/injection, schedule: Q01DX001 (ip), vehicle: Klucel (hydroxypropylcellulose) (HPC) 87 % of control | [1] 88 % of control | dose: 400.0 mg/kg/injection, schedule: Q01DX001 (ip), vehicle: Klucel (hydroxypropylcellulose) (HPC) 87 % of control

CC(O)(CCO)CCO
inactive: dose: 25.0 mg/kg/injection, schedule: Q01DX005 (ip), vehicle: water 98 % of control | dose: 50.0 mg/kg/injection, schedule: Q01DX005 (ip), vehicle: water 100 % of control | dose: 100.0 mg/kg/injection, schedule: Q01DX005 (ip), vehicle: water 98 % of control | dose: 200.0 mg/kg/injection, schedule: Q01DX005 (ip), vehicle: water 99 % of control | dose: 400.0 mg/kg/injection, schedule: Q01DX005 (ip), vehicle: water 99 % of control

CN(C)C(=O)COC(C(=O)N(C)C)C(OCC(=O)N(C)C)C(=O)N(C)C (stereo unspecified)
inactive: [6] 97 % of control | [7] 95 % of control | [8] 92 % of control

CN(C)CCCN=c1c2ccccc2n(C)c2[nH]c(=O)n(C)c(=O)c12
inactive: dose: 7.5 mg/kg/injection, schedule: Q01DX005 (ip), vehicle: saline 107 % of control | dose: 15.0 mg/kg/injection, schedule: Q01DX005 (ip), vehicle: saline 124 % of control | dose: 60.0 mg/kg/injection, schedule: Q01DX005 (ip), vehicle: saline 123 % of control

O=[N+]([O-])c1cccc2c[n+](Cc3ccc(Br)cc3)ccc12
inactive: dose: 6.25 mg/kg/injection, schedule: Q01DX009 (ip), vehicle: saline 107 % of control | dose: 12.5 mg/kg/injection, schedule: Q01DX009 (ip), vehicle: saline 117 % of control | dose: 25.0 mg/kg/injection, schedule: Q01DX009 (ip), vehicle: saline 118 % of control

Cc1ccc(S(=O)CC(O)CO)cc1 (stereo unspecified)
inactive: dose: 50.0 mg/kg/injection, schedule: Q01DX009 (ip), vehicle: saline 95 % of control | dose: 100.0 mg/kg/injection, schedule: Q01DX009 (ip), vehicle: saline 101 % of control | [5] 108 % of control

C=CCOc1cc2c(cc1C(C)c1ccc(OCCC)cc1)OCO2 (stereo unspecified)
inactive: dose: 50.0 mg/kg/injection, schedule: Q01DX005 (ip), vehicle: saline with Tween-80 97 % of control | dose: 100.0 mg/kg/injection, schedule: Q01DX005 (ip), vehicle: saline with Tween-80 102 % of control | dose: 200.0 mg/kg/injection, schedule: Q01DX005 (ip), vehicle: saline with Tween-80 107 % of control

CCOC(=O)c1ccc2[nH]c(-c3ccc(S(=O)(=O)F)cc3)cc(=O)c2c1
inactive: [9] 87 % of control | [10] 93 % of control | [4] 96 % of control | dose: 100.0 mg/kg/injection, schedule: Q01DX009 (ip), vehicle: saline with Tween-80 93 % of control

CSc1nnc(CCC(=O)Nc2c(C)cccc2C(C)(C)C)o1
inactive: dose: 60.0 mg/kg/injection, schedule: Q01DX005 (ip), vehicle: saline with Tween-80 104 % of control | dose: 120.0 mg/kg/injection, schedule: Q01DX005 (ip), vehicle: saline with Tween-80 99 % of control | dose: 240.0 mg/kg/injection, schedule: Q01DX005 (ip), vehicle: saline with Tween-80 91 % of control
